Data as given in patent US20120015961A1, “ISOTHIOUREA DERIVATIVES OR ISOUREA DERIVATIVES HAVING BACE1 INHIBITORY ACTIVITY” (SHIONOGI & CO., LTD., priority 2009, published 2012).

Tests used:
Recombinant human BACE1 = biological target: T1, Recombinant human BACE1 (Homo sapiens, UniProt P56817); assay: Assay of BACE1 inhibiting activity; assay type: biochemical; conditions: 50% inhibitory concentration against enzymatic activity, pH 5.0, 30° C., 3 hours
T1 construct: purchased R&D Systems
Summary of the method: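 Recombinant human BACE1 (7.4 nM) incubated with 18 nM biotinylated Eu-cryptate peptide substrate in pH 5.0 sodium acetate, 3 h at 30 °C. Streptavidin-XL665 added, 1 h; TR-FRET 665/620 nm ratio gives activity, from which IC50 is calculated.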

[1] = tested on: Salmonella typhimurium (TA98 and TA100 strain); assay: FAT test; assay type: cell-based; set-up: key: (−) means that mutagenicity is negative; (+) means positive; conditions: TA98 and TA100, with and without metabolic activation system
Method: Each 20 μL of freeze-stored Salmonella typhimurium (TA98 and TA100 strain) was inoculated in 10 mL of liquid nutrient medium (2.5% Oxoid nutrient broth No. 2), and the cultures were incubated at 37° C. under shaking for 10 hours. 9 mL of TA98 culture was centrifuged (2000×g, 10 minutes) to remove medium, and the bacteria was suspended in 9 mL of Micro F buffer (K2HPO4: 3.5 g/L, KH2PO4: 1 g/L, (NH4)2SO4: 1 g/L, trisodium citrate dehydrate: 0.25 g/L, MgSO4.7H2O: 0.1 g/L), and the suspension was added to 110 mL of Exposure medium (Micro F buffer containing Biotin: 8 μg/mL, histidine: 0.2 μg/mL, glucose: 8 mg/mL). 3.16 mL of TA100 culture was added to 120 mL of Exposure medium to prepare the test bacterial solution. […] The number of the yellow wells among the 48 total wells per dose was counted, and evaluated the mutagenicity by comparing with the negative control group. […]

[2] = tested on: Neuroblastoma SH-SY5Y cells (SH/APPwt) with human wild-type β-APP excessively expressed; assay: Measurement of β-amyloid (Aβ) production inhibitory effect in cell; assay type: cell-based; conditions: Homo sapiens, SH-SY5Y, 24 h, amount needed to inhibit Aβ production by 50%, 24 hours incubation, Amyloid β1-40 HTRF
Summary of the method: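 SH-SY5Y cells overexpressing human wild-type β-APP exposed to compound for 24 h at 37 °C in 1% final DMSO. Secreted Aβ1-40 in supernatant measured by HTRF (overnight at 4 °C; 665/620 nm ratio). IC50 derived from at least six concentrations.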

T1 sequence (P56817 46-501): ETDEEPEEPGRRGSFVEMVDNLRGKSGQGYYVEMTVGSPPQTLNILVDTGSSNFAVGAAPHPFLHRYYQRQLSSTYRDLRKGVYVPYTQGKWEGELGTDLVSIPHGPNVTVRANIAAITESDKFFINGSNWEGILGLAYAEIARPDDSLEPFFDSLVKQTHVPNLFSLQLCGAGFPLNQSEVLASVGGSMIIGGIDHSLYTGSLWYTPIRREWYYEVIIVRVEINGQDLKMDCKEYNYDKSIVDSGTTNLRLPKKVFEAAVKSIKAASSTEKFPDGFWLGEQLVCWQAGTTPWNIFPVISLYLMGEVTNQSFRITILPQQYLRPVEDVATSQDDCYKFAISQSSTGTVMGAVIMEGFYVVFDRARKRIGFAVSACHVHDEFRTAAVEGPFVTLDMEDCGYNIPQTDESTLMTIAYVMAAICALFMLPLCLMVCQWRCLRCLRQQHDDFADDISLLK

In the case of `CO/C(N)=N\C1(c2cccc(NC(=O)c3ccc(C#N)cn3)c2)CC1` [Compound 44], the IC50 (Recombinant human BACE1) is reported as ≤ 1 µM, the mutagenicity [1] is reported as “(−)” and the IC50 [2] is reported as ≤ 1 µM.
